Laboratory results reported in patent US20210123061A1, “METHODS AND COMPOSITIONS FOR TREATING INFLAMMATORY DISEASE OR DISORDER” (THE BRIGHAM AND WOMEN'S HOSPITAL, INC., priority 2018, published 2021).

Test system: RXXpS/T, RPS6-pSer235/236, PRAS40-pThr246
Experiment: Immunoblot of RXXpS/T motif, RPS6 and PRAS40 phosphorylation in macrophages
Assay type: cell-based, human
Experimental: FIGS. 6A-6C show phospho-proteomics identified RSK substrates in human PBMC-derived macrophages. (FIG. 6A) Scheme of phospho-proteomics. Human PBMC-derived macrophages were treated with DMSO or BI-D1870 for two hours followed by IFN-γ stimulation for subsequent proteolysis and phospho-peptide enrichment using the anti-RXXpS/T antibody strategy. (FIG. 6B) Cell lysates were subjected to immunoblot analysis with anti-RPS6-pSer235/236, anti-RPS6, anti-PRAS40-pThr246, anti-PRAS40, or anti-Tubulin. N=2 donors. […] The average shortest distance of the same number of randomly selected genes to disease genes was calculated for N=250 realizations in order to compare the average shortest distance value to random expectation. Empirical p-values were calculated based on 100 degree-preserved randomizations of the first neighbor networks.
FIGS. 15A-15C show RXXpS/T pattern in human IFN-γ-stimulated macrophages. (FIG. 15A) Human PBBMC-derived macrophages were treated with DMSO or 10 μM BI-D1870 for 2 hours followed by stimulation with IFN-γ for 1 hour. Cell lysates were subjected to immunoblot analysis with anti-RXXpS/T antibody. (FIG. 15B) Four ellipse Venn diagram showing numbers of detected phospho-peptides in each sample. (FIG. 15C) A flow chart of screening for RSK-substrates in human macrophages. We identified 24 candidates including RPS6 and AKT1S1/PRAS40 as RSK-substrates. […]

## CC(C)CCN1c2nc(Nc3cc(F)c(O)c(F)c3)ncc2N(C)C(=O)C1C (centres unmarked) [BI-D1870]
10 μM for 2 hours, then IFN-γ 1 hour
  anti-RXXpS/T immunoblot signal intensities: decrease in signal intensities
IFN-γ versus RSK-inhibition, two donors
  RPS6-pSer235/236 and PRAS40-pThr246 immunoblot: confirming the changes
